Assay results: patent EP0448343A2, “Lipopeptide derivatives” (MERCK & CO. INC., priority 1990, dated 1991)
Structures can show the parent of a compound that is named as a salt.

Assays:
[1] = test system: Pneumocystis carinii; test: Pneumocystis carinii pneumonia in immunosuppressed rats; format: in vivo, Sprague-Dawley rats; details: eliminating P. carinii cysts in four days, dexasone-immunosuppressed rats, microscopic analysis of stained lung slides
Method: In a representative study, the effectiveness of Compound A-1a was determined. Sprague-Dawley rats (weighing approximately 250 grams) were immunosuppressed with dexasone in the drinking water (2.0 mg/L) and maintained on a low protein diet for five weeks to induce the development of pneumocystis pneumonia from a latent infection. […] Six rats (weighing approximately 150 grams) were injected twice daily for four days intravenously (I.V.) via the tail vein with Compound A-1a in 0.25 ml of vehicle (distilled water). A vehicle control was also carried out. All animals continued to receive dexasone in the drinking water and low protein diet during the treatment period. At the completion of the treatment, all animals were sacrificed, the lungs were removed and processed, and the extent of disease determined by microscopic analysis of stained slides.
In a similar experiment, except that the rats were injected intraperitoneally (I.P.) twice daily for four days, the animals were sacrificed, the lungs removed and processed, and the extent of disease determined by microscopic analysis of stained slides.

[2] = Solubility in water; format: physicochemical

Row | SMILES | ED₉₀ ([1]; injected twice daily for four days intravenously (I.V.) via the tail vein) | solubility in water [2] | ED₉₀ ([1]; injected intraperitoneally (I.P.) twice daily for four days) | solubility [2]
1 | CCC(C)CC(C)CCCCCCCCC(=O)NC1CC(O)C(O)NC(=O)C2C(O)CCN2C(=O)C(C(O)CC(N)=O)NC(=O)C(C(O)C(O)c2ccc(OP(=O)(O)O)cc2)NC(=O)C2CC(O)CN2C(=O)C(C(C)O)NC1=O (stereo not shown) [Compound A-1a, 1-[4,5-dihydroxy-N2-(10,12-dimethyl-1-oxotetradecyl)-ornithine-4-[3,4-dihydroxy-4′-O-phosphoryl-homotyrosine]-5-[3-hydroxyglutamine]-6-[3-hydroxyproline]-echinocandin B disodium salt] | approximately 0.6 mg/kg | > 40 mg/mL | – | –
2 | CCC(C)CC(C)CCCCCCCCC(=O)NC1CC(O)CNC(=O)C2C(O)CCN2C(=O)C(C(O)CC(N)=O)NC(=O)C(C(O)C(O)c2ccc(OP(=O)(O)O)cc2)NC(=O)C2CC(O)CN2C(=O)C(C(C)O)NC1=O (stereo not shown) [Compound A-2a, 1-[4-hydroxy-N2-(10,12-dimethyl-1-oxotetradecyl)-ornithine]-4-[3-hydroxy-4′-O-phosphoryl-homotyrosine]-5-[3-hydroxyglutamine]-6-[3-hydroxyproline]echinocandin B disodium salt] | – | – | approximately 0.6 mg/kg | > 85 mg/mL
